We go through three molecules from patent US7144865B2, “Compositions and methods for treating obesity” (The United States of America as represented by the …, priority 2003, dated 2006).

Test [1] in a line: Water intake in G-K rats treated with AA plus zinc (Example 3, FIG. 10). The format is in vivo. The following applies: One-month old G-K rats, 2 weeks. From the text:
(FIG. 10). Thus, water intake was reduced in rats with all treatments containing zinc relative to DW-treated rats, but not with the AA-only treatment.

Test [2] concerns intestinal zinc transport. Particulars: cited from earlier work.
For test [3] the following is noted: cited from earlier work.
Test [4] is described as follows: Arachidonic acid plus zinc and L-histidine in drinking water for 14 days in ob/ob and lean mice (Example 2, Table 3). The format is in vivo. The following applies: for Body Weight Gain / Food Intake / Water Intake: 14 days, mean ± SEM. As to the method:
Eight week old male C57BL/6J-obese ob/ob mice and their lean wild-type littermates were randomly divided into five groups of five mice and treated with the following levels of AA in drinking water: (i) 0 mg AA/l; (ii) 10 mg AA/l; (iii) 20 mg AA/l; (iv) 50 mg AA/l; or (v) 100 mg AA/l. 10 mg zinc and 0.5 mg L-histidine/l were also included at each level of AA described above. The treatment solutions were replaced with freshly prepared solutions every other day during the 2-week treatment period. Body weight, and food and water intake were measured every other day in the morning, beginning the first day of treatment.

For test [5], the system named is intestinal zinc absorption. The following applies: normal (non-diabetic) rats, oral, cited from earlier work.
For test [6] the following is noted: cited from earlier work. The source holds these as a separate data set.
For test [7] the following is noted: humans; CHP intake; cited from earlier work.
A short description of test [8]: Plasma insulin levels in G-K rats treated with zinc and CHP (Example 1, Table 2). Type of test: in vivo. Particulars: for Plasma Insulin Levels (mean ± SEM): 6-month old G-K rats. From the text: However, higher doses of CHP decreased plasma insulin levels. (Table 2)
The nature of test [9]: CHP plus zinc and L-histidine in drinking water for 21 days in ob/ob and lean mice (Example 5, Table 1). Type of test: in vivo. Particulars: for Body Weight Gain / Food Intake / Water Intake: 21 days, mean ± SEM.
Description: Ob/ob and lean mice were randomly divided into four groups and treated with drinking water containing either 0, 0.5, 1.0, or 1.5 mg CHP/L plus 10 mg zinc and 0.5 mg L-histidine/L. Drinking water containing test substances was prepared every other day with freshly prepared solutions. During the testing non-fasting blood glucose concentrations, food and water intake, and body weight were measured every other day in the morning. Non-fasting plasma insulin concentrations and three-hour average blood glucose concentrations were determined at the end of the three-week treatment period.
For test [10] the following is noted: cited from earlier work. This is another data set of the same source.
Test [11] in a line: Body weight and water intake in S-D rats treated with zinc or zinc plus CHP (FIGS. 4, 5, 9). The following applies: 8-month old S-D rats; FIG. 9.
Test [12] is described as follows: Food and water intake in G-K rats treated with zinc or zinc plus CHP (FIGS. 6, 8). Type of test: in vivo.
A short description of test [13]: Body weight and growth rate of G-K rats treated with zinc or zinc plus CHP (FIGS. 1, 2, 11-13). The following applies: one month old (young) G-K rats; FIG. 2. Type of test: in vivo. From the text: I believe that CHP is effective in maintaining body weight control even after the cessation of the treatment.
Where [14] appears, read: Lean mice, 10 mg/L AA plus 10 mg/L zinc and 0.5 mg/L L-histidine.
Where [15] appears, read: Lean mice, 20 mg/L AA plus 10 mg/L zinc and 0.5 mg/L L-histidine.
Where [16] appears, read: Lean mice, 50 mg/L AA plus 10 mg/L zinc and 0.5 mg/L L-histidine.
Where [17] appears, read: Lean mice, 100 mg/L AA plus 10 mg/L zinc and 0.5 mg/L L-histidine.
Setting [18] is: Ob/ob mice, 10 mg/L AA plus 10 mg/L zinc and 0.5 mg/L L-histidine.
Where [19] appears, read: Ob/ob mice, 20 mg/L AA plus 10 mg/L zinc and 0.5 mg/L L-histidine, p < 0.05 vs 0 mg/l group.
The mark [20] stands for this setting: Ob/ob mice, 50 mg/L AA plus 10 mg/L zinc and 0.5 mg/L L-histidine.
Setting [21] is: Ob/ob mice, 100 mg/L AA plus 10 mg/L zinc and 0.5 mg/L L-histidine.
[22] abbreviates: Lean mice, 0.5 mg/L CHP plus 10 mg/L zinc and 0.5 mg/L L-histidine.
The mark [23] stands for this setting: Lean mice, 1.0 mg/L CHP plus 10 mg/L zinc and 0.5 mg/L L-histidine.
The mark [24] stands for this setting: Lean mice, 1.5 mg/L CHP plus 10 mg/L zinc and 0.5 mg/L L-histidine.
[25] abbreviates: Ob/ob mice, 0.5 mg/L CHP plus 10 mg/L zinc and 0.5 mg/L L-histidine.
[26] abbreviates: Ob/ob mice, 1.0 mg/L CHP plus 10 mg/L zinc and 0.5 mg/L L-histidine.
The mark [27] stands for this setting: Ob/ob mice, 1.5 mg/L CHP plus 10 mg/L zinc and 0.5 mg/L L-histidine.

Where two headings read alike, the source gives them in different places.

Take `CCCCC/C=C\C/C=C\C/C=C\C/C=C\CCCC(=O)O` [AA, arachidonic acid]: in test [1] (AA-only treatment (20 mg/L AA)), the “water intake reduced relative to DW-treated rats” value was “not”. Further, the “zinc uptake (rate) of intestinal segments” value in test [2] (jejunal / isolated intestinal segments of diabetic rats, AA added to the segment-bathing medium) is reported as “increased significantly”. Also, the “zinc transport rate into the circulatory system” value in test [2] (jejunal segments of diabetic rats) is “did not enhance”. For the same molecule, the Water Intake result in test [3] (genetically obese mice) was “significantly reduced”; in test [4] (setting [14]), 207.3 ± 23.6 ml/kg BW/day; in test [4] (setting [15]), 211.6 ± 23.6 ml/kg BW/day; in test [4] (setting [16]), 211.9 ± 21.5 ml/kg BW/day; in test [4] (setting [17]), 216.1 ± 21.0 ml/kg BW/day; in test [4] (setting [18]) it was 215.9 ± 15.2 ml/kg BW/day. The “Water Intake” value in test [4] (setting [19]) was 182.9 ± 12.4 ml/kg BW/day; in test [4] (Ob/ob mice, 50 mg/L AA plus 10 mg/L zinc and 0.5 mg/L L-histidine, p < 0.05 vs 0 mg/l group) it was 188.7 ± 11.5 ml/kg BW/day; in [4] (Ob/ob mice, 100 mg/L AA plus 10 mg/L zinc and 0.5 mg/L L-histidine, p < 0.05 vs 0 mg/l group), 198.9 ± 15.3 ml/kg BW/day; in [6] (diabetic G-K rats), “significantly reduced”; in test [6] (streptozotocin-induced diabetic rats) it was “significantly reduced”. Moreover, the “optimal concentration of AA required to provide improved blood glucose levels” value in test [3] (obese mice) is 2.0 mg/day/kg; in test [6] (diabetic G-K rats), 4.0 mg/day/kg; in test [6] (streptozotocin induced diabetic rats) it was 11 mg/day/kg. Besides, the “Body Weight Gain” value came to 1.0 ± 0.2 g in test [4] (setting [14]); 0.6 ± 0.2 g in test [4] (setting [15]); 1.0 ± 0.3 g in test [4] (setting [16]); 0.6 ± 0.1 g in test [4] (setting [17]); 2.3 ± 0.7 g in [4] (setting [18]); 2.6 ± 0.4 g in test [4] (Ob/ob mice, 20 mg/L AA plus 10 mg/L zinc and 0.5 mg/L L-histidine). For the same molecule, the “Body Weight Gain” value in [4] (setting [20]) turned out to be 2.4 ± 1.7 g; in test [4] (setting [21]), 2.9 ± 0.5 g. Further, the “Food Intake” value in test [4] (setting [14]) was determined as 143.9 ± 13.2 g/kg BW/day; in [4] (setting [15]), 129.9 ± 11.1 g/kg BW/day; in test [4] (setting [16]) it was 133.1 ± 9.5 g/kg BW/day; in test [4] (setting [17]) it was 130.0 ± 13.2 g/kg BW/day; in [4] (setting [18]), 126.5 ± 13.2 g/kg BW/day; in [4] (setting [19]), 107.5 ± 9.0 g/kg BW/day. Further, the “Food Intake” value in test [4] (setting [20]) worked out at 114.4 ± 9.9 g/kg BW/day; in test [4] (setting [21]), 116.0 ± 12.0 g/kg BW/day. Further, the “water and food intake” value in test [4] (lean mice) is “no treatment effect”. For the same molecule, in test [4] (obese mice, 20 mg/L AA plus zinc, p<0.05), the “Food intake versus those treated with only zinc and L-histidine” value is on record as “significantly lower”. The “Water intake versus those given only zinc and L-histidine” value in [4] (obese mice, 20, 50 or 100 mg AA/l, p<0.05) is listed as “significantly lower”. The body weight entry in [4] (obese or lean mice) is reported as “no effect”. Moreover, the intestinal zinc absorption result in test [5] (high doses of AA, above 1.0 mg/200 g body weight) is given as “increased”; in test [5] (low doses of AA (0.5 mg/200 g)) it was “decreased”. For the same molecule, in [6] (diabetic rats, higher doses of AA), the water consumption rates result is “significantly decreased”.
For the molecule `O=C1N[C@@H](Cc2cnc[nH]2)C(=O)N2CCC[C@@H]12` [CHP, cyclo-Hispro], the Food Intake result in test [7] is on record as “decreases”; in test [9] (setting [22]), 171.7 ± 12.5 g/kg BW/day; in test [9] (setting [23]), 159.6 ± 7.3 g/kg BW/day; in test [9] (setting [24]) it was 180.6 ± 19.5 g/kg BW/day; in test [9] (setting [25]) it was 128.3 ± 7.8 g/kg BW/day; in test [9] (setting [26]), 110.6 ± 10.3 g/kg BW/day. Further, the “Food Intake” value in [9] (setting [27]) is on record as 120.7 ± 10.4 g/kg BW/day; in test [10] (rats, CHP intake), “decreases”. Moreover, the “Plasma Insulin Levels (mean ± SEM)” value in test [8] (CHP only 1.0 mg/L in drinking water) is 0.907 ± 0.090 ng/mL. Further, in test [8] (hyperinsulinemic diabetic G-K rats, higher / increasing doses of CHP), the plasma insulin levels entry was “decreased”. The “Body Weight Gain” value in test [9] (setting [22]) is recorded as 1.5 ± 0.4 g; in [9] (setting [23]), 1.3 ± 0.5 g; in test [9] (setting [24]), 2.2 ± 0.9 g; in test [9] (setting [25]) it was 4.3 ± 0.8 g; in test [9] (Ob/ob mice, 1.0 mg/L CHP plus 10 mg/L zinc and 0.5 mg/L L-histidine, p < 0.05 vs 0 or 0.5 mg CHP/L), 2.3 ± 0.8 g; in test [9] (setting [27]) it was 3.8 ± 0.9 g. Also, the “Water Intake” value in test [9] (setting [22]) is 267.1 ± 22.7 ml/kg BW/day; in [9] (setting [23]), 258.2 ± 21.8 ml/kg BW/day; in test [9] (setting [24]) it was 302.5 ± 27.2 ml/kg BW/day; in test [9] (setting [25]) it was 198.2 ± 13.5 ml/kg BW/day; in [9] (setting [26]), 160.4 ± 9.7 ml/kg BW/day; in [9] (setting [27]) it was 192.5 ± 16.8 ml/kg BW/day. The Water Intake result in test [10] (intraventricular administration) is reported as “significantly reduces”. For the same molecule, the “Water and food intake relative to the other treatment groups” value in test [9] (ob/ob mice, 1.0 mg CHP plus zinc and L-histidine, difference not significant) is on record as “lowest”. Besides, in [9] (ob/ob mice, 1.0 mg CHP/L plus zinc and L-histidine, P<0.05), the “Body weight gain relative to those given zinc and L-histidine only” value was “significantly reduced”.
In the case of `[Zn]` [zinc], the results for the Water Intake entry in [1] (10 mg/L zinc only) and in test [12] (1.0-month-old rats) were “significantly decreased” and “not affected”, respectively. Besides, in [11], the water intakes result is on record as “significantly decreased”. In test [8] (zinc only 10 mg/L in drinking water), the “Plasma Insulin Levels (mean ± SEM)” value is 0.637 ± 0.048 ng/mL. In test [12] (10 month old G-K rats, P<0.01, FIG. 8), the “Water intake compared to distilled water (DW) treated rats” value is given as “significantly lower”. For the same molecule, the growth rates entry in test [13] was “not affected”.
